According to BigSolDB 2.1:

Cn1[nH]c(=O)c(=O)[nH]c1=S
Details | solubility (mole fraction)
in acetone, 293.25 K | 0.015
in acetone, 298.25 K | 0.0155
in acetone, 303.09 K | 0.016
in acetone, 308.05 K | 0.0168
in acetone, 312.79 K | 0.0178
in acetone, 318.03 K | 0.0186
in acetone, 323.07 K | 0.0199
in acetone, 327.37 K | 0.0209
in acetonitrile, 293.21 K | 0.00221
in acetonitrile, 298.23 K | 0.00248
in acetonitrile, 303.15 K | 0.00268
in acetonitrile, 308.11 K | 0.00299
in acetonitrile, 313.07 K | 0.00333
in acetonitrile, 317.95 K | 0.00375
in acetonitrile, 323.11 K | 0.0042
in acetonitrile, 328.13 K | 0.00463
in acetonitrile, 333.23 K | 0.00521
in acetonitrile, 338.17 K | 0.00585
in acetonitrile, 342.75 K | 0.00654
in ethanol, 293.23 K | 0.0125
in ethanol, 298.35 K | 0.014
in ethanol, 303.33 K | 0.0152
in ethanol, 308.29 K | 0.0169
in ethanol, 313.47 K | 0.0186
in ethanol, 318.47 K | 0.0205
in ethanol, 323.41 K | 0.0228
in ethanol, 328.23 K | 0.0255
in ethanol, 333.53 K | 0.0278
in ethanol, 338.63 K | 0.0307
in ethanol, 343.33 K | 0.0345
in ethyl acetate, 293.07 K | 0.00574
in ethyl acetate, 298.49 K | 0.00617
in ethyl acetate, 303.41 K | 0.00643
in ethyl acetate, 308.49 K | 0.00697
in ethyl acetate, 313.53 K | 0.00747
in ethyl acetate, 318.67 K | 0.00799
in ethyl acetate, 323.49 K | 0.0086
in ethyl acetate, 328.61 K | 0.00918
in ethyl acetate, 333.53 K | 0.00985
in ethyl acetate, 338.23 K | 0.0104
in ethyl acetate, 343.33 K | 0.0111
in isopropanol, 293.11 K | 0.00556
in isopropanol, 298.21 K | 0.00663
in isopropanol, 303.13 K | 0.00782
in isopropanol, 308.11 K | 0.00915
in isopropanol, 312.87 K | 0.0107
in isopropanol, 317.83 K | 0.0124
in isopropanol, 323.07 K | 0.0142
in isopropanol, 328.13 K | 0.0164
in isopropanol, 333.09 K | 0.0187
in isopropanol, 337.75 K | 0.0217
in isopropanol, 342.67 K | 0.0248
in n-butanol, 293.11 K | 0.00872
in n-butanol, 298.23 K | 0.00964
in n-butanol, 302.99 K | 0.0109
in n-butanol, 308.11 K | 0.0124
in n-butanol, 313.13 K | 0.0141
in n-butanol, 318.05 K | 0.0159
in n-butanol, 322.89 K | 0.0178
in n-butanol, 328.13 K | 0.02
in n-butanol, 333.39 K | 0.0224
in n-butanol, 338.07 K | 0.0255
in n-butanol, 343.23 K | 0.0288
in n-propanol, 292.99 K | 0.00859
in n-propanol, 298.33 K | 0.00959
in n-propanol, 303.23 K | 0.0108
in n-propanol, 308.23 K | 0.0122
in n-propanol, 313.15 K | 0.0139
in n-propanol, 318.23 K | 0.0157
in n-propanol, 323.23 K | 0.0176
in n-propanol, 328.47 K | 0.0198
in n-propanol, 333.07 K | 0.0223
in n-propanol, 338.33 K | 0.0251
in n-propanol, 343.35 K | 0.0286
in water, 293.23 K | 0.00139
in water, 298.15 K | 0.00158
in water, 302.93 K | 0.00187
in water, 312.93 K | 0.00263
in water, 317.65 K | 0.00306
in water, 322.85 K | 0.00366
in water, 327.77 K | 0.00438
in water, 332.83 K | 0.00522
in water, 337.35 K | 0.00623
in water, 342.47 K | 0.00748
